Columns and labels:
[1] = Safety on oral administration to cattle (Example 12); conditions: bovine, in vivo, selenium, cobalt and fenbendazole in combination (preparation of Example 3), read-out: oral administration with no adverse effect observed
Method: The safety of the composition of Example 3 on oral administration to cattle was investigated: • A total of 16 cattle were treated-orally with the preparation of Example 3. Eight Friesian heifers weighing between 330 and 420 kg were treated with the preparation at the recommended dose of 7.5 ml per 100 kg body weight. Four Friesian cattle weighing between 930 and 990 kg were treated orally with the preparation at five times the recommended dose i.e. 37.5 ml per 100 kg. A further four Friesan cattle weighing between 870 and 1030 kg were treated orally with the preparation at ten times the recommended dose i.e. […].
The cattle were observed daily for a period of 21 days following treatment for any signs at adverse effect.

[2] = Toxicity in lambs, daily clinical examinations after oral treatment (Example 2); conditions: sheep, in vivo, per os, given together with fenbendazole as developmental formulation, read-out: oral dose levels tolerated, no signs of drug toxicity
Method: Animals: Twenty, six to eight month old lambs were made available for the purpose of this investigation. The lambs were allocated to five groups (n = 4) on the basis of mean faecal egg counts determined on each of three successive days.
Prior to treatment, all lambs were weighed. Lambs were maintained at grass as a single group for the duration of the study.
• Group 1: Untreated controls • Group 2: Treated with 5 mg/kg fenbendazole as Panacur 2.5 % Suspension (Commercial batch, "Panacur", is a Trade Mark) Composition of Panacur 2.5 % : as described in Example 1 with the omission of the selenium and cobalt components. • Group 3: Treated with 5 mg/kg fenbendazole as a developmental formulation (see below) • Group 4: Treated with 25 mg/kg fenbendazole as a developmental formulation (see below) • Group 5: Treated with 50 mg/kg fenbendazole as a developmental formulation (see below)
Groups 4 and 5 thus received five and ten times respectively the recommended dose of fenbendazole and cobalt, and 12.5 and 25 times respectively the recommended dose of selenium.
Clinical examinations were carried out on all lambs daily post treatment for the duration of the study.

[3] = per os, sheep; cited from earlier work

| Compound | NOAEL at 504 h [1] | NOAEL [2] | LD50 [3] |
| --- | --- | --- | --- |
| COC(=O)Nc1nc2ccc(Sc3ccccc3)cc2[nH]1 [Fenbendazole, 5-Phenyl-thio-2-benzimidazolecarbamic acid methylester, reference compound] | ≤ 75 mg/kg | – | – |
| [Se] [elemental selenium] | ≥ 20 mg/kg | ≥ 2 mg/kg | 0.5 mg/kg |

Source: patent EP0090368A1, “Anthelmintic preparations” (priority 1982, dated 1983)
